One series deals with murine RCC E28 cells. Put plainly: Proliferation of murine RCC E28 cells (viable cell count). The settings on record: for sensitivity of MYC-driven RCC line to compound: 140 nM and 70 nM. The class given is cell-based. From the text:
In addition, murine renal cell carcinoma E28 cell line was used in this study. These cells were maintained in DMEM supplemented with 10% (vol/vol) FBS, 1% glutamine, 1% sodium pyruvate, 1% non-essential amino acids, and Antibiotic-Antimycotic.
(§1) A 50 microliter volume of cells was taken from the culture medium and combined with an equal volume of 0.4% Trypan blue stain. Then, 10 microliters of this 1:1 mixture was pipetted onto a slide and placed into a hemocytometer for cell counting. The viable cell count was used for measuring cell proliferation in the sample.
Activity of compounds NSC750212, NSC750719, NSC750722, and NSC756089 (see, FIG. 1) was investigated on a MYC-driven RCC line derived from a transgenic mouse model using low dose ranges of 280 nM, 140 nM, and 70 nM. […] FIG. 2, illustrates the results of treatment of murine RCC E28 cells with, from left to right: DMSO and corresponding AZP derivatives at concentrations of 70 nM, 140 nM and 280 nM. Even at 70 nM, NSC750212 causes about 90% reduction of cell proliferation compared to the vehicle control (DMSO).

For another series, the system named is human RCC A498 cell line. Description: Proliferation / viability of human RCC A498 cell line. It counts as cell-based. The conditions noted are these: for reduction in viability / suppression: 70 nM, 48 hours, human RCC A498; for SAR analysis: relative activity: RCC cell lines, substitution on C-4 phenyl ring.
Text: as §1
To further expand the structure activity relationship (SAR), six additional AZP derivatives were synthesized: AR-02, AR-03, AR-038, AR-051, AR-061 and AR-065, with different substituents on the C-4 phenyl ring (FIG. 1). Having validated that exemplary AZP compounds show efficacy in our murine-derived RCC line, it was sought to determine if this finding could be relevant in human RCC line, A498. Exemplary compound NSC750212 and newly synthesized analogues were tested in A498 cell line (FIG. 3).

The subject of the next series is CCRF (T lymphoblast). Put plainly: Proliferation of lymphoma line CCRF. The class given is cell-based, human.
Text: (§2) Human T-cell acute lymphoblastic leukemias CCRF, DND-41, KOPT-K1, human B-cell Burkitt's lymphoma P493-6, and murine lymphoma 6780 were used in this study. Human and mouse lymphomas were all maintained in RPMI supplemented with 10% (vol/vol) FBS, 1% glutamine, 1% sodium pyruvate, 1% non-essential amino acids, and Antibiotic-Antimycotic. All cell culture reagents used were obtained from Gibco (Thermo Fisher Scientific Inc.).
as §1
(§3) Activity of exemplary compounds against lymphomas was also investigated. […] FIG. 4 illustrates proliferative responses of various human lymphoma lines, from left to right: CCRF, DND-41, KOPR, and MYC-driven lymphoma lines P493 and 6780, at doses of 70 nM, 140 nM, and 280 nM vs a control (DMSO). […] KOPT and P-493 still show a significant but much less suppression, at roughly 85%. At 140 nM, CCRF and 6780 show an increase in suppression at roughly 92% and 94%, respectively.

The test system of series [1] is DND-41 (child T lymphoblastic leukemia). Put plainly: Proliferation of lymphoma line DND-41. It counts as cell-based, human.
Text: as §2, §1, §3

In a further series the test system is KOPT-K1 (human T-ALL). Description: Proliferation of lymphoma line KOPT-K1. The class given is cell-based.
Text: as §2, §1, §3

The subject of series [2] is human B-cell Burkitt's lymphoma P493-6. Put plainly: Proliferation of MYC-driven lymphoma line P493-6. The class given is cell-based. The settings on record: P-493.
Text: as §2, §1, §3

Another series deals with murine lymphoma 6780. Put plainly: Proliferation of MYC-driven lymphoma line 6780. It counts as cell-based.
Text: as §2, §1, §3

Series [3] has as its system human RCC A498 xenografts. Put plainly: Human RCC A498 xenograft in NSG mice. The conditions noted are these: intratumoral treatment for a week, vs DMSO control. It counts as in vivo. On the technique in general: Xenograft models place foreign cells or tissue in a host animal.
Series [4] concerns human MYC-driven Burkitt Lymphoma line P493 xenografts. Put plainly: Human lymphoma P493 xenograft in NSG mice. The class given is in vivo. The settings on record: intratumoral treatment for a week, vs DMSO control.
Another series deals with bovine tubulin. Put plainly: Tubulin Polymerization Assay (EMD Millipore). The class given is biochemical. The settings on record: compared to positive control Nocodazole and negative control Paclitaxel. How it is done:
The Tubulin Polymerization Assay (EMD Millipore) was used to confer the mechanism of azapodophyllotoxin derivatives. The polymerization reaction was conducted in a 96-well plate. Paclitaxel was used as the non-tubulin-inhibiting negative control, and Nocodazole was used as the tubulin-inhibiting positive control. First, a solution of 99% pure bovine tubulin stock solution in 1× polymerization buffer (PB) containing 1 mM GTP was made. Second, a 1:9 mixture of each drug and control with PB-GTP solution was also prepared. In each well, 60 microliters of the first solution (99% tubulin solution in 1×PB and 1 mM GTP) was combined with 60 microliters of one of each of the prepared 1:9 drug to PB-GTP solutions. All solutions were prepared on ice prior to combining and placement into the spectrophotometer. Tubulin assembly was measured through turbidity variation (light scattering) in the spectrophotometer every 30 seconds at 350 nm (with shaking in between each reading) over the course of 90 minutes.
Given the structure of NSC750212 and computational docking studies of Azapodophyllotoxins in general, it has been stipulated that they may target tubulins. Using EMD Millipore Tubulin Polymerization Assay, NSC750212 was compared to a negative control, Paclitaxel, and a positive control, Nocodazole, to determine whether its mechanism is via the inhibition of tubulin polymerization.

The test system of a further series is tubulin. Put plainly: Nano-fluidic proteomic immunoassay (NIA) of tubulin in treated tumors. The class given is in vivo, human. How it is done: NIA was performed using the ProteinSimple Nanopro 1000 machine. The final protein concentration loaded into each nano-fluidic capillary of the machine was 0.1 ug/uL. The primary antibody for Tubulin (Cell Signaling Technologies) was diluted 1:100. The primary antibody for HSP70 (Santa Cruz Biosciences) was diluted 1:500. The secondary anti-rabbit and anti-mouse HRP-conjugates were both diluted 1:100. Chemiluminescence signal was recorded after the addition of the detection reagent, which consists of a 1:1 ratio of luminol and peroxide. Analysis of the chemiluminescence data from NIA was performed via the ProteinSimple Compass software.
Fine needle aspirations (FNAs) are defined to be biopsies performed via the aspiration of the tumor using a needle of […] or smaller. Core biopsies are any biopsies done using a needle larger than […]. Techniques for performing FNAs and core biopsies are similar. The needle tip is plunged into the tumor and retracted, in a fast and repetitive motion, while applying suction at the needle tip. […]
To investigate if this mechanism is consistent in vivo, we used the Nano ImmunoAssay to analyze core biopsies and fine needle aspirates (FNA) of tumors during the course of treatment with NSC750212. […] There are no other charged isoforms of tubulin detected by NIA (FIG. 7, panel D).

In the next series the test system is monoglycerols. Description: DESI-MSI of monoglycerols in treated RCC. The class given is in vivo, mouse. The conditions noted are these: primary MYC-driven RCC, upon termination of treatment. From the text: DESI-MSI functions by directing a pneumatically assisted solvent electrospray onto the surface of interest (Takats, Wiseman, Gologan, & Cooks, 2004). The electrosprayed solvent droplets dissolve certain chemical constituents off the surface investigated and also induce the formation of secondary charged-droplets that take off from the surface. These secondary droplets already contain constituents of the sample and produce molecular ions of the analytes upon evaporation in the atmospheric pressure interface of the mass spectrometer. This way, electrospray-like mass spectrometric information is obtained on the sample, featuring multiply charged ions and solvent adducts among other electrospray-specific spectral features.
Though we expected a complete depletion of metabolism upon tubulin inhibition by NSC750212, our DESI-MSI analyses uncover a more interesting mechanism. […] Monoglycerol metabolism has been implicated in cancer, due to the high need of cancer cells of energy and building blocks. […] As described herein, DESI-MSI is a valuable tool for use in uncovering the mechanism of action of exemplary azapodophyllotoxin derivatives.

From patent US20230003715A1, “AZAPODOPHYLLOTOXIN DERIVATIVES AND METHODS OF TREATING LYMPHOMA AND KIDNEY CANCER” (The Board of Trustees of the Leland Stanford Junior …, priority 2019, published 2023) come the findings set out here.

For `COc1cc(C2C3=C(COC3=O)N(CCO)c3cc4c(cc32)CCC4)cc(OC)c1OC` (centres unmarked) [NSC750212], the “reduction of cell proliferation compared to the vehicle control (DMSO)” value in the series with murine RCC E28 cells (70 nM, 48 hours) was “about 90%”. The “suppression of proliferation when compared to 70 nM” value with murine RCC E28 cells (140 nM, 48 hours) is on record as “two-fold”. Moreover, the “sensitivity of MYC-driven RCC line to compound” value (“sensitivity” for short) with murine RCC E28 cells (280 nM) was “very high sensitivity”. Moreover, the “efficacy at higher concentration than 140 nM” value in the series on murine RCC E28 cells (280 nM, 48 hours) is on record as “no further efficacy”. In addition, the “reduction in viability / suppression” value with human RCC A498 cell line is 95%. Moreover, in the series with human RCC A498 cell line, the “SAR analysis: relative activity” value is “most active”. Moreover, the reduction in proliferation in the series with CCRF (T lymphoblast) (70 nM, vs control (DMSO)) was around 90%; in series [1] (70 nM), around 95%; in series [2] (140 nM), “over 90%”; in the series on murine lymphoma 6780 (70 nM), around 90%. Further, the suppression of proliferation result with CCRF (T lymphoblast) (140 nM) is “roughly 92%”; in the series with CCRF (T lymphoblast) (280 nM), “about 96%”; in the series on KOPT-K1 (human T-ALL) (70 nM) it was “roughly 85%”; in the series with KOPT-K1 (human T-ALL) (140 nM), “roughly 87%”; in series [2] (70 nM), “roughly 85%”; in series [2] (280 nM) it was around 98%. Also, the suppression of proliferation with murine lymphoma 6780 (140 nM) is given as around 94%; in the series with murine lymphoma 6780 (280 nM), “maximal suppression”. Further, the dose response result in the series on CCRF (T lymphoblast) (70, 140, 280 nM) is listed as “dose-dependent response”; in the series with KOPT-K1 (human T-ALL) (70, 140, 280 nM), “dose-dependent response”; in series [2] (70, 140, 280 nM), “dose-dependent response”; in the series on murine lymphoma 6780 (70, 140, 280 nM), “dose-dependent response”. In series [1], the “maximal dose (maximally effective dose)” value is listed as 70 nM. Also, the “change in suppression vs 70 nM” value in series [1] (140 nM) is “no dose response”. In the series with KOPT-K1 (human T-ALL) (280 nM), the reduction of proliferation entry was “roughly 89%”. In addition, the tumor burden result in series [3] and in series [4] was “significant reduction in tumor burden” throughout. Moreover, in the series on bovine tubulin, the “inhibition of tubulin polymerization (turbidity at 350 nm over 90 minutes)” value is recorded as “more efficacious than Nocodazole”. For the same compound, the “lowered levels of tubulin expression vs control” value with tubulin (core biopsy of tumor during treatment) and in the series on tubulin (fine needle aspirate (FNA) of tumor during treatment) was “at least two-fold” each time. Further, the “levels of monoglycerols compared to untreated RCC” value in the series on monoglycerols is listed as “elevated levels of monoglycerols”.
Consider `COc1cccc(C2C3=C(COC3=O)N(CCO)c3cc4c(cc32)CCC4)c1` (centres unmarked) [NSC750719], for which, in the series with murine RCC E28 cells (280 nM), the “sensitivity” value is “very high sensitivity”.
Consider `COc1cccc(C2C3=C(COC3=O)N(CCO)c3cc4c(cc32)OCCO4)c1` (centres unmarked) [NSC750722], for which the “sensitivity” value in the series on murine RCC E28 cells (280 nM) is recorded as “very high sensitivity”.
In the case of `O=C1OCC2=C1C(c1cccc(Br)c1)c1cc3c(cc1N2CCO)CCC3` (centres unmarked) [AR-038], in the series with human RCC A498 cell line, the “reduction in viability / suppression” value is given as 90% and the “SAR analysis: relative activity” value is reported as “promising activity”.
